IC50 data for 10 molecules are collected here from ChEMBL document CHEMBL1146265, “Synthesis and structure-activity studies of antofine analogues as potential anticancer agents” (Bioorg Med Chem Lett, 2007).

SMILES strings stand for the structures.

What all share (format): functional, cell-based
In one test the test system is HCT-116. Kind of test: Cytotoxicity against human HCT116 cells by SRB assay. (The SRB assay estimates cell density from bound dye.)
For the next test, the system named is HT-1080. Kind of test: Cytotoxicity against human HT1080 cells by SRB assay.
For another test, the system named is A549. Put plainly: Cytotoxicity against human A549 cells by SRB assay.

As for `COc1ccc2c3c(c4cc(OC)c(OC(C)C)cc4c2c1)CC1CCCN1C3` (stereo not given), the results for the 50% inhibitory concentration (IC50) with HCT-116, in the test on HT-1080 and with A549 were 24.7 nM, 37.4 nM and 53.9 nM, respectively.
Consider `COc1cc2c3c(c4ccccc4c2cc1OC)CN1CCCC1C3` (stereo not given), for which the results for the 50% inhibitory concentration (IC50) with HCT-116, in the test with HT-1080 and with A549 were 49.3 nM, 59.1 nM and more than 100 nM, respectively.
Taken in the same sequence, the figures for `COc1ccc2c3c(c4cc5c(cc4c2c1)OCO5)CC1CCCN1C3` (stereo not given) were 364 nM, 453 nM and 747 nM.
On to `COc1ccc2c3c(c4cc(OC(C)C)c(OC)cc4c2c1)CC1CCCN1C3` (stereo not given), for which the IC50 with HCT-116 is 783 nM; in the test with HT-1080, more than 1000 nM; with A549, more than 1000 nM.
`COc1cc2c3c(c4ccc(OC(C)C)cc4c2cc1OC)CN1CCCC1C3` (stereo not given): the half-inhibitory concentration (IC50) amounted to 19.2 nM with HCT-116, 23.6 nM with HT-1080 and 40.5 nM with A549.
In the case of `COc1ccc2c3c(c4cc(OC)c(OC)cc4c2c1)CC1CCCN1C3` (stereo not drawn) [(+/-)-ANTOFINE], the 50% inhibitory concentration (IC50) with HCT-116 was 29.4 nM; in the test with HT-1080, 27.5 nM; with A549, 25.1 nM.
Regarding `COc1ccc2c3c(c4cc(OC)c(OC)cc4c2c1)C[C@H]1CCCN1C3` [(-)-ANTOFINE], the IC50 worked out at 9.9 nM in the test with HCT-116, 9.6 nM in the test on HT-1080 and 10.4 nM in the test on A549.
For `COc1ccc2c3c(c4cc(O)c(OC)cc4c2c1)CC1CCCN1C3` (stereo not given), the IC50 in the test on HCT-116 was 68.3 nM; with HT-1080, 72.6 nM; in the test with A549 it was more than 100 nM.
In the case of `COc1ccc2c3c(c4cc(OC)c(O)cc4c2c1)CC1CCCN1C3` (stereo not given), the 50% inhibitory concentration (IC50) in the test on HCT-116 stood at 21.4 nM; in the test on HT-1080, 19.8 nM; with A549, 49.8 nM.
On to `COc1cc2c3c(c4ccc(O)cc4c2cc1OC)CN1CCCC1C3` (stereo not given), for which the half-maximal inhibitory concentration (IC50) amounted to 1.1 nM with HCT-116, 1.1 nM in the test with HT-1080 and 1.4 nM in the test with A549.

The IC50 is the concentration at which inhibition is half-maximal.
